SMILES strings stand for the structures.

A short description of data set [1]: Clinical study: plasma concentrations after OTF administration. The conditions noted are these: for plasma level following OTF compared to intravenous administration of 20 mg (S)-ketamine / Cmax: human; for plasma level following OTF compared to intravenous administration of 20 mg (S)-ketamine: in vivo; for Cmax: plasma, Cmax plasma concentration.
Data set [2] in a line: Clinical study: pharmacokinetic model (NONMEM), Tmax, AUC, oral bioavailability.
The conditions of data set [3]: averaged; cited from earlier work.
Data set [4] in a line: Clinical study: safety, compatibility, adverse events.
The mark [5] stands for this setting: All data, 50 mg OTF based on formulation 15.
Where [6] appears, read: All data, 2 × 50 mg OTF based on formulation 15.
Setting [7] is: Buccally, 50 mg OTF based on formulation 15.
Setting [8] is: Buccally, 2 × 50 mg OTF based on formulation 15.
[9] abbreviates: Sublingually, 50 mg OTF based on formulation 15.
Where [10] appears, read: Sublingually, 2 × 50 mg OTF based on formulation 15.
Setting [11] is: 50 mg (S)-Ketamine OTF, calculated using PK model.
[12] abbreviates: 100 mg (S)-Ketamine OTF, calculated using PK model.
Where [13] appears, read: human, plasma, other: sublingual or buccal, 50 mg.
The mark [14] stands for this setting: human, plasma, other: sublingual or buccal, 100 mg.

As to `N[C@]1(c2ccccc2Cl)CCC[C@H](O)C1=O` [(S)-Hydroxynorketamine], the Cmax plasma concentration in data set [1] (setting [5]) stood at 94 ng/mL; in data set [1] (setting [6]) it was 171 ng/mL; in data set [1] (setting [7]) it was 81 ng/mL; in data set [1] (setting [8]) it was 165 ng/mL; in data set [1] (setting [9]), 98 ng/mL; in data set [1] (setting [10]), 173 ng/mL. The “plasma level following OTF compared to intravenous administration of 20 mg (S)-ketamine” value in data set [1] is “higher following administration of an OTF”. Moreover, the Tmax in data set [2] (setting [11]) is listed as 81 (69-92) min; in data set [2] (setting [12]), 109 (89-130) min.

Turning to `CNC1(c2ccccc2Cl)CCCCC1=O` (racemic) [(S)-ketamine, (S)-(±)-2-(2-chlorophenyl)-2-(methylamino)cyclohexan-1-one], the lethal dose in data set [3] is on record as 4.2 g/70 kg. For the same molecule, in data set [1], the “plasma level following OTF compared to intravenous administration of 20 mg (S)-ketamine” value is “higher for intravenous administration”. Further, the Cmax in data set [1] (50 mg, Buccally, 50 mg OTF based on formulation 15) turned out to be 117 ng/mL. Further, in data set [1] (50 mg, Sublingually, 50 mg OTF based on formulation 15), the concentration peaked (Cmax) at 95 ng/mL. For the same molecule, the peak level in data set [1] (100 mg, Buccally, 2 × 50 mg OTF based on formulation 15) (Cmax) was 158 ng/mL. Further, in data set [1] (100 mg, Sublingually, 2 × 50 mg OTF based on formulation 15), the Cmax is 138 ng/mL. Besides, the Cmax in data set [1] (other: sublingual or buccal (all data), 50 mg, All data, 50 mg OTF based on formulation 15) amounted to 101 ng/mL. The Cmax in data set [1] (other: sublingual or buccal (all data), 100 mg, All data, 2 × 50 mg OTF based on formulation 15) was found to be 143 ng/mL. Moreover, in data set [2] (setting [13]), the AUC(0-t) is 139 ng·h/mL and the Tmax was 18.8 min. Besides, in data set [2] (setting [14]), the AUC(0-t) is 222 ng·h/mL and the Tmax is 19.1 min. Moreover, in data set [4] (20 mg (S)-ketamine IV), the “Dizziness (prevalence of events)” value was 4, the “Drowsiness (prevalence of events)” value is 3, the “Dry eyes (prevalence of events)” value was 1 and the “Headache (prevalence of events)” value worked out at 3. In addition, in data set [4] (20 mg (S)-ketamine IV), the “High blood pressure (SBP >180 mm Hg) (prevalence of events)” value amounted to 2, the “Nausea (prevalence of events)” value turned out to be 2, the “Sweating (prevalence of events)” value stood at 1 and the “Total side effects (prevalence of events)” value (“Total side effects” for short) turned out to be 17. The “Whistling noise in the ear (prevalence of events)” value in data set [4] (20 mg (S)-ketamine IV) was 1. In data set [4] (50 mg (S)-ketamine OTF), the “Blurred vision (prevalence of events)” value amounted to 1, the “Bradykinesia (prevalence of events)” value is 1, the “Dizziness (prevalence of events)” value came out at 1 and the “Feeling of drunkenness (prevalence of events)” value was 2. Further, in data set [4] (50 mg (S)-ketamine OTF), the “Headache (prevalence of events)” value is given as 1, the “Nausea (prevalence of events)” value was found to be 1 and the “Total side effects” value is 7. In addition, in data set [4] (100 mg (S)-ketamine OTF), the “Bradykinesia (prevalence of events)” value was found to be 1, the “Dizziness (prevalence of events)” value is given as 3, the “Headache (prevalence of events)” value is reported as 2 and the “Nausea (prevalence of events)” value is given as 1. Moreover, in data set [4] (100 mg (S)-ketamine OTF), the “Numbness of the tongue (prevalence of events)” value worked out at 2 and the “Total side effects” value is listed as 9. In data set [4] (whole study, OTF and IV), the “adverse events in total” value was found to be 33, the serious adverse events result was “None of these was a serious adverse event” and the “test subjects reporting at least one adverse event” value is on record as 18.

As to `N[C@]1(c2ccccc2Cl)CCCCC1=O` [(S)-Norketamine], the Cmax plasma concentration is 254 ng/mL in data set [1] (setting [5]); 330 ng/mL in data set [1] (setting [6]); 242 ng/mL in data set [1] (setting [7]); 450 ng/mL in data set [1] (setting [8]); 258 ng/mL in data set [1] (setting [9]); 323 ng/mL in data set [1] (setting [10]). Also, in data set [1], the “plasma level following OTF compared to intravenous administration of 20 mg (S)-ketamine” value is “higher following administration of an OTF”. For the same molecule, the Tmax in data set [2] (setting [11]) is recorded as 61 (53-68) min; in data set [2] (setting [12]), 78 (66-91) min.

The record behind these values is patent US20230404914A1 (priority 2020, published 2023).
